Assay results published in publication PMC9464843, “Escitalopram co-prescription in anastrozole-treated breast cancer patients” (Northern Clinics of Istanbul, 2022).
Like-named read-outs stand apart in the source and are kept apart here.

Tests used:
[1] = breast cancer patients, cited from earlier work
serum estradiol = experiment: Serum estradiol levels before and after escitalopram; assay type: in vivo, human (post-menopausal breast cancer patients)
Description: (§1) Data on age, body mass index (BMI; kg/m^2), stage of tumor, previous anti-neoplastic treatments, and concomitant medications were collected in each patient at study enrollment. Blood samples were collected twice, before and 1-month after the onset of escitalopram treatment to analyze change in plasma anastrozole as well as estradiol levels under escitalopram treatment. Anastrozole levels were also analyzed with respect to baseline characteristics including age (≤57 years vs. >57 years), BMI (≤29.9 kg/m^2 vs. >29.9 kg/m^2), radiotherapy (left vs. right breast, the side indicates the affected organs, none), chemotherapy (applied vs. none), tamoxifen (applied vs. none), tumor stage, estradiol levels (≤10 pg/mL vs. >10 pg/mL), concomitant medications (present vs. none) and in patients discontinued versus continued 1-month escitalopram treatment.

[2] = female, human, in vivo
Description: (§2) A total of 24 operated post-menopausal breast cancer patients who were co-prescribed with escitalopram while taking anastrozole for at least 1 month were included in this study. The inclusion criteria were being on anastrozole treatment (1 mg/day) for at least 1 month (30±2 days), being younger than age of 75, having no implementation of radiotherapy or chemotherapy in the past 3 months before the study enrollment and having normal renal and hepatic functions.
(§3) Plasma anastrozole levels were measured twice, once before and once 1 month (30±2 days) after the onset of escitalopram by high-performance liquid chromatography (HPLC). The blood samples were centrifuged at 4500 g for 5 min within the 1 hour following the sampling and stored at -80°C until analysis. The plasma samples were extracted by using diethyl ether:dichloromethane (80:20, v:v) and high-performance liquid chromatography analyses were performed in Agilent Triple Quadrupole Mass Spectrometry system. A reverse phase C18 column (poroshell SB-C18, 2.7µm, 3.0 × 100 mm) was used within the system. The mobile phase was comprised of 5 mM ammonium acetate and acetonitrile at a ratio of 15:85 (v:v). Tolterodine was used as an internal standard. The external standard calibration interval was 0.5–50 ng/mL (r^2: 0.9930). Before analysis, 5 mL venous blood samples were collected into Na-EDTA-containing glass tubes and the blood samples were centrifuged at 4500 g for 5 min within an hour following the sampling and stored at -80°C until analysis.
(§4) The time between the last dose of anastrozole and blood sampling was recorded. As there was a variation between the last anastrozole dose and the blood sampling time, the maximum plasma concentrations (Cmax) were extrapolated by using the following pharmacokinetic formula:

clinical = details: female, human, in vivo
Description: as §2, §3, §4

[3] = cited from earlier work
CYP2D6 [4] = details: cited from earlier work; for Ability to inhibit the CYP2D6 enzyme: SSRI antidepressants
CYP3A4 = tested on: CYP3A4; design: method as in PMID 11454728; details: cited from earlier work
[5] = tested on: depression-related symptoms; design: method as in PMID 22142651; details: escitalopram 5–20 mg/day; breast cancer patients; cited from earlier work
CYP 2C9 = tested on: CYP 2C9; design: method as in PMID 17375980; details: cited from earlier work
[6] = Liver and kidney functions after escitalopram; assay type: in vivo, human (post-menopausal breast cancer patients); details: continuers n=17; 1 month escitalopram with anastrozole
histaminergic receptors = tested on: histaminergic receptors; design: method as in PMID 16266205; details: cited from earlier work
cholinergic receptors = tested on: cholinergic receptors; design: method as in PMID 16266205; details: cited from earlier work
CYP 1A2 = tested on: CYP 1A2; design: method as in PMID 17375980; details: cited from earlier work
CYP 3A4 = tested on: CYP 3A4; design: method as in PMID 17375980; details: cited from earlier work
CYP2C19 = tested on: CYP2C19; design: method as in PMID 11454728; details: cited from earlier work
[7] = Completion / discontinuation of 1-month escitalopram treatment; assay type: in vivo, human (post-menopausal breast cancer patients); details: n=24
Description: as §1
Patients were on anastrozole (1 mg/day) for at least 1 month (30±2 days), while escitalopram was initiated with a dose of 10 mg/day for the first 7 days and then the dose was gradually elevated to 20 mg/day to enable tolerance.

[8] = design: method as in earlier work; details: escitalopram 20 mg daily for 12 weeks; hot flushes; cited from earlier work
CYP 2C19 = tested on: CYP 2C19; design: method as in PMID 17375980; details: cited from earlier work
CYP2D6 [9] = tested on: CYP2D6; design: method as in PMID 11454728; details: cited from earlier work
adrenergic receptors = tested on: adrenergic receptors; design: method as in PMID 16266205; details: cited from earlier work
[10] = under anastrozole 1 mg/day, n=24

CC(C)(C#N)c1cc(Cn2cncn2)cc(C(C)(C)C#N)c1 [Anastrozole, anastrozole]
Anastrozole concentrations, inter-individual range ([1]; past studies): 0.0 to 98.8 ng/mL
Anastrozole plasma steady-state concentration, mean ([1]; previous studies): 37.4 ng/mL
Anastrozole plasma steady-state concentration, median ([1]; previous studies): 32.2 ng/mL
Patients with serum estradiol levels >10 pg/mL (serum estradiol; [10]): 25%
Patients with serum estradiol levels ≤10 pg/mL (serum estradiol; [10]): 75%
Basal plasma anastrozole level [2]: 52.2 ng/mL
Plasma anastrozole, post-escitalopram [2]: 31.9 ng/mL
Plasma anastrozole, post-escitalopram ([2]; 1 month): 27.9 ng/mL
concentration at 1 month (clinical; Plasma anastrozole levels, range): 9.1 to 57 ng/mL
concentration at 1 month (clinical; Plasma anastrozole, post-escitalopram): 40.4 ng/mL

NC(=O)N1c2ccccc2C=Cc2ccccc21 [Carbamazepine]
Carbamazepine clearance, non-obese versus obese patients [3]: marginally higher
Carbamazepine clearance after major weight loss ([3]; six obese patients): significantly increased

CN(C)CCCC1(c2ccc(F)cc2)OCc2cc(C#N)ccc21 (stereo not drawn) [citalopram]
Ability to inhibit the CYP2D6 enzyme (CYP2D6 [4]): weak inhibition

CN(C)CCC[C@@]1(c2ccc(F)cc2)OCc2cc(C#N)ccc21 [escitalopram]
Share of CYP3A4 in bio-transformation of escitalopram (CYP3A4): 35%
Time to amelioration of depression-related symptoms [5]: ≤ 1 week
Change in estradiol levels after escitalopram administration (serum estradiol; continuers n=17, 1 month escitalopram with anastrozole): no change
Inhibition of CYP 2C9 (CYP 2C9): weak or negligible inhibition
Change in liver and kidney functions after escitalopram administration [6]: No significant change
Affinity for histaminergic receptors (histaminergic receptors): low affinity
Ability to inhibit the CYP2D6 enzyme (CYP2D6 [4]): weak inhibition
Inhibition of CYP 2D6 (CYP2D6 [4]): weak or negligible inhibition
Affinity for cholinergic receptors (cholinergic receptors): low affinity
Inhibition of CYP 1A2 (CYP 1A2): weak or negligible inhibition
Inhibition of CYP 3A4 (CYP 3A4): weak or negligible inhibition
Share of CYP2C19 in bio-transformation of escitalopram (CYP2C19): 37%
Patients who completed the 1-month escitalopram treatment [7]: 70.8%
Patients who discontinued escitalopram within the 1st week of treatment ([7]; 10 mg/day first 7 days): 29.2%
Patients who discontinued treatment due to side effects such as nausea and somnolence [8]: 14%
Inhibition of CYP 2C19 (CYP 2C19): weak or negligible inhibition
Share of CYP2D6 in bio-transformation of escitalopram (CYP2D6 [9]): 28%
Affinity for adrenergic receptors (adrenergic receptors): low affinity

CNCCC(Oc1ccc(C(F)(F)F)cc1)c1ccccc1 (stereo not drawn) [fluoxetine]
Ability to inhibit the CYP2D6 enzyme (CYP2D6 [4]): strong inhibition

Fc1ccc([C@@H]2CCNC[C@H]2COc2ccc3c(c2)OCO3)cc1 [paroxetine]
Ability to inhibit the CYP2D6 enzyme (CYP2D6 [4]): strong inhibition
